Measured values from patent US11185100B2 (priority 2014, dated 2021).
Structures can show the parent of a compound that is named as a salt. Where two headings read alike, the source gives them in different places.

Key:
[1] = target: T1R1/T1R3 receptor (Felis catus, UniProt E3UMS2); experiment: Activation of T1R1/T1R3 receptor by transmembrane compounds alone or with alanine, IMP, GMP, phenylalanine; HEK293 cells, calcium fluorescence (Example 5); assay type: cell-based, cat; conditions: for Max resp % of IMP +Alanine (20 mM): relative to IMP; for Thres +Alanine (20 mM) / Thres +IMP (0.2 mM): threshold concentration; for Max resp % of Ala +IMP (0.2 mM): relative to Ala; for Activity: Table 18, all transmembrane compounds tested, active / N/A (not active)
From the text: Methods: HEK293 cells that stably express T1R3 and inducibly express T1R1 were exposed to transmembrane compounds alone or in combination with one or more amino acids and/or one or more nucleotides to activate the umami receptor. Activation of the T1R1/T1R3 receptor was detected by a change in intracellular calcium levels using a calcium sensitive fluorescent dye. Cells that express T1R3 but not T1R1 were used as a control. A FLIPR® Tetra or a FlexStation® 3 was used for data capture.
In each experiment, serial dilutions of up to 10 mM of the transmembrane compound were added to the T1R1/T1R3-expressing cells.

[2] = target: cat T1R1/T1R3 receptor (Felis catus, UniProt E3UMS2); experiment: cell-based; assay type: cell-based
From the text: Methods: HEK293 cells that stably express T1R3 and inducibly express T1R1 were exposed to nucleotide derivatives alone or in combination with one or more amino acids and/or one or more nucleotides to activate the umami receptor. Activation of the T1R1/T1R3 receptor was detected by a change in intracellular calcium levels using a calcium sensitive fluorescent dye and/or a luminescent reporter system. Cells that express T1R3 but not T1R1 were used as a control. A FLIPR® Tetra or a FlexStation® 3 was used for data capture.

[3] = in the presence of 20 mM alanine
[4] = in the presence of 20 mM alanine, relative to response with IMP
[5] = threshold amount that activates the receptor, in the presence of 20 mM alanine
[6] = in the presence of 20 mM alanine, read-out: EC50- with Ala

Molecule	Activity [2]	Max resp. (ΔF/F) [2]	Threshold [2] [mM]	Max. resp. % of IMP ([2]; hek293 cells)	also measured
O=C(Nc1ccccc1Br)N[C@@H]1c2ccccc2C[C@@H]1O (stereo in doubt) [1-(2-bromophenyl)-3-((1R,2S)-2-hydroxy-2,3-dihydro-1H-inden-1-yl)urea]	–	–	–	–	+Alanine (20 mM) Max resp % of IMP ([1]; +Alanine (20 mM)): 33.0 % of IMP; +Alanine (20 mM) Max resp ΔF/F ([1]; +Alanine (20 mM)): 0.3 ΔF/F; +Alanine (20 mM) Thres ([1]; +Alanine (20 mM)): 3 mM; Max resp % of IMP +Alanine (20 mM) ([1]; +Alanine (20 mM)): 33.0%; Thres +Alanine (20 mM) ([1]; +Alanine (20 mM)): 3 mM; +IMP (0.2 mM) Max resp % of Ala [1]: 44.9 % of Ala; Max resp ΔF/F +IMP (0.2 mM) [1]: 0.378 ΔF/F; Max resp % of Ala +IMP (0.2 mM) [1]: 44.9%; Thres +IMP (0.2 mM) [1]: 3 mM; Activity [1]: active
O=C(CN1C(=O)C(=O)N(Cc2ccccc2)C1=O)c1ccccc1 [1-benzyl-3-(2-oxo-2-phenylethyl)imidazolidine-2,4,5-trione]	–	–	–	–	+Alanine (20 mM) Max resp % of IMP ([1]; +Alanine (20 mM)): 127.6 % of IMP; +Alanine (20 mM) Max resp ΔF/F ([1]; +Alanine (20 mM)): 1.3 ΔF/F; +Alanine (20 mM) Thres ([1]; +Alanine (20 mM)): 1 mM; Max resp % of IMP +Alanine (20 mM) ([1]; +Alanine (20 mM)): 127.6%; Thres +Alanine (20 mM) ([1]; +Alanine (20 mM)): 1 mM; +IMP (0.2 mM) Max resp % of Ala [1]: 135.7 % of Ala; Max resp ΔF/F +IMP (0.2 mM) [1]: 1.140 ΔF/F; Max resp % of Ala +IMP (0.2 mM) [1]: 135.7%; Thres +IMP (0.2 mM) [1]: 0.08 mM; Activity [1]: active; EC50 ([1]; compound alone in buffer, read-out: EC50 +buffer (alone)): > 1000 µM; EC50 ([1]; read-out: +Alanine (20 mM) + IMP (0.2 mM) EC50, +Alanine (20 mM) + IMP (0.2 mM)): 330 ± 40 µM; EC50 ([1]; read-out: EC50 +Alanine (20 mM) + IMP (0.2 mM), +Alanine (20 mM) + IMP (0.2 mM)): 330 µM; EC50 ([1]; read-out: EC50 +Alanine (20 mM), +Alanine (20 mM)): > 1000 µM
CSc1ccc(-c2nnn(Cc3ccccn3)n2)cc1 [2-((5-(4-(methylthio)phenyl)-2H-tetrazol-2-yl)methyl)pyridine]	–	–	–	–	+IMP (0.2 mM) Max resp % of Ala [1]: 80.7 % of Ala; Max resp ΔF/F +IMP (0.2 mM) [1]: 0.678 ΔF/F; Max resp % of Ala +IMP (0.2 mM) [1]: 80.7%; Thres +IMP (0.2 mM) [1]: 0.1575 mM; Activity [1]: active
Nc1ncnc2c1ncn2C1OC(COP(=O)(O)O)C(OP(=O)(O)O)C1O (stereo not shown) [Adenosine 3′,5′-diphosphate sodium salt, adenosine 3′, 5′ diphosphate sodium salt]	active	0.9578 ΔF/F	0.00025	98.9 % of IMP	EC50 ([2]; read-out: EC50- with Ala): 1 µM
Nc1ncnc2c1ncn2[C@@H]1O[C@H](COP(=O)(O)O)[C@@H](O)[C@H]1O [Adenosine 5′-monophosphate disodium salt, reference compound]	active	1.5470 ΔF/F	0.003	159.8 % of IMP	–
Nc1ncnc2c1ncn2C1OC(COP(=O)(O)OS(=O)(=O)O)C(O)C1O (stereo not shown) [Adenosine 5′-phosphosulfate sodium salt, Adenosine 5′-phosphosulfate]	–	0.8658 ΔF/F	0.008	89.4 % of IMP	–
Nc1ncnc2c1ncn2[C@@H]1O[C@H](COP(O)(O)=S)[C@@H](O)[C@H]1O [Adenosine-5′-O-monophosphorothioate]	–	1.2435 ΔF/F	0.003	128.4 % of IMP	EC50 ([2]; read-out: EC50- with Ala): 11 µM
Nc1nc2c(ncn2[C@@H]2O[C@H](COP(=O)(O)O)[C@@H](O)[C@H]2O)c(=O)[nH]1 [GMP, guanosine monophosphate, reference compound]	–	–	0.008	–	–
Nc1nc2c(ncn2[C@@H]2O[C@H](COP(=O)(O)OP(=O)(O)O)[C@@H](O)[C@H]2O)c(=O)[nH]1 [Guanosine 5′-diphosphate sodium salt, Guanosine 5′-diphosphate]	active	1.7550 ΔF/F	0.050	141.2 % of IMP	EC50 ([2]; read-out: EC50- with Ala): 200 µM
Nc1nc2c(ncn2[C@@H]2O[C@H](COP(=O)(O)OP(=O)(O)OP(=O)(O)O)[C@@H](O)[C@H]2O)c(=O)[nH]1 [Guanosine 5′-triphosphate]	active	1.8075 ΔF/F	0.175	145.5 % of IMP	EC50 [2]: 700 µM
Nc1nc2c(ncn2[C@@H]2O[C@H](COP(O)(O)=S)C(O)C2O)c(=O)[nH]1 (stereo partly shown) [Guanosine-5′-monophosphorothioate]	active	1.29 ΔF/F	0.0025	103.8 % of IMP	EC50 [2]: 10 µM
O=c1[nH]cnc2c1ncn2[C@@H]1O[C@H](COP(=O)(O)OP(=O)(O)O)[C@@H](O)[C@H]1O [Inosine 5′-diphosphate (IDP) sodium salt, inosine 5′-diphosphate (IDP) sodium salt]	–	–	–	–	Activity ([2]; +Alanine (20 mM)): active; Max resp. (ΔF/F) [2, 3]: 0.3 ΔF/F; Max. resp. % of IMP [2, 4]: 33.3 % of IMP; EC50 ([2]; read-out: EC50- with Ala): 650 µM; Threshold [2, 5]: 0.1625 mM
CNc1ncnc2c1ncn2[C@H]1C[C@H](OP(=O)(O)O)[C@@H](COP(=O)(O)O)O1 [MRS 2179 ammonium salt hydrate, 2′-Deoxy-N^6-methyl adenosine 3′,5′-diphosphate diammonium salt]	active	1.8150 ΔF/F	0.013	146.1 % of IMP	–
O=P(O)(O)OC[C@H]1O[C@@H](n2cnc3c(NC4CCCC4)ncnc32)[C@H](O)[C@@H]1O [N6-Cyclopentyladenosine-5′-O-monophosphate]	active	1.2317 ΔF/F	0.013	127.2 % of IMP	EC50 [2, 6]: 50 µM
CNc1ncnc2c1ncn2[C@@H]1O[C@H](COP(=O)(O)O)[C@@H](O)[C@H]1O [N6-Methyladenosine 5′-monophosphate]	–	0.9907 ΔF/F	0.020	102.3 % of IMP	Activity ([2]; +Alanine (20 mM)): active; EC50 [2, 6]: 80 µM
CC(=O)Nc1nc2c(ncn2[C@@H]2O[C@H](COP(=O)(O)O)[C@@H](O)[C@H]2O)c(=O)[nH]1 [N-Acetyl-5′-GMP]	active	1.3351 ΔF/F	0.025	137.9 % of IMP	EC50 [2, 6]: 100 µM
O=P(O)(O)OC[C@H]1O[C@@H](n2cnc3cncnc32)[C@H](O)[C@@H]1O [Purine riboside-5′-O-monophosphate, reference compound]	active	2.0266 ΔF/F	–	209.3 % of IMP	EC50 [2, 6]: 20 µM; Threshold [2, 5]: 0.005 mM
NC(=O)c1ncn(C2OC(COP(=O)(O)O)C(O)C2O)n1 (stereo not shown) [Ribavirin 5′-Monophosphate]	active	1.5294 ΔF/F	0.175	158.0 % of IMP	EC50 [2, 6]: 700 µM
O=c1[nH]c(=O)c2ncn([C@@H]3O[C@H](COP(=O)(O)O)[C@@H](O)[C@H]3O)c2[nH]1 [Xanthosine 5′-Monophosphate Disodium Salt]	active	1.6223 ΔF/F	0.025	167.6 % of IMP	EC50 ([2]; read-out: EC50- with Ala): 100 µM
O=P(O)(O)OP(=O)(O)OP(=O)(O)OC[C@H]1O[C@@H](n2cnc3c(O)ncnc32)[C@H](O)[C@@H]1O [inosine triphosphate (ITP), inosine triphosphate, reference compound]	–	–	–	–	EC50 ([2]; read-out: EC50- with Ala): 80 µM
Guanosine 5′-monophosphomorpholidate 4-morpholine-N,N′-dicyclohexylcarboxamidine salt	–	–	–	–	Activity ([2]; +Alanine (20 mM)): active; Max resp. (ΔF/F) [2, 3]: 0.5121 ΔF/F; EC50 [2, 6]: 1300 µM; Max. resp. % of IMP [2, 4]: 52.9 % of IMP; Threshold [2, 5]: 0.325 mM
